Measured values reported in US8153389B2, “Methods for the identification of PI3K interacting molecules and for the purification of PI3K” (CellZone AG, priority 2006, dated 2012).

Tests used:
[1] = target: T1, PI3K delta (Homo sapiens, UniProt O00329); assay: Drug pulldown with immobilized phenylthiazole ligand 1 from MOLT-4 lysate, Western blot; type: binding; settings: 50 mg protein, FIG. 2B
T1 construct: immobilized phenylthiazole ligand 1 captures (pulls down) PI3K gamma and PI3K delta from the cell lysate; endogenous in cells; host or cells: MOLT-4 cells (human T cell line, ATCC CRL-1582), cell lysate
Procedure: (§1) As biological material a cell lysate prepared from MOLT-4 cells was used. The drug pulldown experiment was performed as described in Example 2 with lysate samples containing 50 mg of protein. Captured proteins were eluted with DMSO containing buffer (lane 1), 100 μM of free phenylthiazole ligand 1 or SDS sample buffer (lane 3). The eluted samples were separated on SDS-polyacrylamide gels and transferred to membranes. The blots were first incubated with specific antibodies directed against PI3K gamma (FIG. 2A) and PI3K delta (FIG. 2B). Secondary detection antibodies labeled with fluorescent dyes for detection were used with the Odyssey infrared imaging system.
(§2) To this end a lysate of MOLT-4 cells was contacted with the affinity matrix described in example 1. […]
(§3) For Western blot analysis bound proteins were eluted from the affinity matrix and subsequently separated by SDS-Polyacrylamide gel electrophoresis. PI3K gamma and PI3K delta were detected with specific antibodies (FIG. 2).
(§4) MOLT-4 cells were homogenized in a Potter S homogenizer in lysis buffer: 50 mM Tris-HCl, 0.8% NP40, 5% glycerol, 150 mM NaCl, 1.5 mM MgCl2, 25 mM NaF, 1 mM sodium vanadate, 1 mM DTT, pH 7.5. […] The supernatant was transferred again to a fresh 50 ml falcon tube, the protein concentration was determined by a Bradford assay (BioRad) and samples containing 50 mg of protein per aliquot were prepared. […]

[2] = target: T2, PI3K gamma (Homo sapiens, UniProt P48736); assay: as above; type: binding; settings: 50 mg protein, FIG. 2A
T2 construct: PI3K gamma protein was captured by immobilized phenylthiazole ligand 1 from MOLT-4 cell lysate; endogenous in cells; host or cells: MOLT-4 cells (human T cell line, ATCC CRL-1582), cell lysate
Procedure: as §1, §2, §3, §4

T1 sequence (O00329 whole entry): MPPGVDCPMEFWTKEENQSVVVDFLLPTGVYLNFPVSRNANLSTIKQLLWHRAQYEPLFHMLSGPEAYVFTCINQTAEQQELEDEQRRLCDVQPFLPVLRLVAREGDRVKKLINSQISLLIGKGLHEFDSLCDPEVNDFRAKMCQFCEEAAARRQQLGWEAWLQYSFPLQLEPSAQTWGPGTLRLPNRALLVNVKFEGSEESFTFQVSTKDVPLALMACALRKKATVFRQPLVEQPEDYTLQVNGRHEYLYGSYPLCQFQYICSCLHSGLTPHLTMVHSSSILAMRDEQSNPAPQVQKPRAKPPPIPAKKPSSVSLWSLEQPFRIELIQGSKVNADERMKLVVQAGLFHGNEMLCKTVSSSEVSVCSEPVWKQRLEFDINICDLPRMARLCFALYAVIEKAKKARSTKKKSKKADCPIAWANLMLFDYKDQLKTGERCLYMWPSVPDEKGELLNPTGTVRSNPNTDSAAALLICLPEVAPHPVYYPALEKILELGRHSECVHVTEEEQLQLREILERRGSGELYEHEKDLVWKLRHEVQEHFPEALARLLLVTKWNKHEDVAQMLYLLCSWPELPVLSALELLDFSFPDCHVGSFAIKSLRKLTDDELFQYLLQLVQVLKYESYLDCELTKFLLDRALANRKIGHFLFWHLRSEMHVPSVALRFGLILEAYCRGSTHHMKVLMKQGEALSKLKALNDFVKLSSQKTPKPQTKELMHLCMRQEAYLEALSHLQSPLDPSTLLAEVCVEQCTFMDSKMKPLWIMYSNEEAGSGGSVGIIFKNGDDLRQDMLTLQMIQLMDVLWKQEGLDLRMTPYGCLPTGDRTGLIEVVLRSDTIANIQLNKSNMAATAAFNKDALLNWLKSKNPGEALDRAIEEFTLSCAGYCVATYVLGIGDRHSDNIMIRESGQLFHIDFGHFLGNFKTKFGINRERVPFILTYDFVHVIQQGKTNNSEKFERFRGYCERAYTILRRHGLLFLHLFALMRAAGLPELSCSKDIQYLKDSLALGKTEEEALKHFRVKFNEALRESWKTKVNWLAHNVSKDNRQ
T1 sequence (P27986 whole entry partner): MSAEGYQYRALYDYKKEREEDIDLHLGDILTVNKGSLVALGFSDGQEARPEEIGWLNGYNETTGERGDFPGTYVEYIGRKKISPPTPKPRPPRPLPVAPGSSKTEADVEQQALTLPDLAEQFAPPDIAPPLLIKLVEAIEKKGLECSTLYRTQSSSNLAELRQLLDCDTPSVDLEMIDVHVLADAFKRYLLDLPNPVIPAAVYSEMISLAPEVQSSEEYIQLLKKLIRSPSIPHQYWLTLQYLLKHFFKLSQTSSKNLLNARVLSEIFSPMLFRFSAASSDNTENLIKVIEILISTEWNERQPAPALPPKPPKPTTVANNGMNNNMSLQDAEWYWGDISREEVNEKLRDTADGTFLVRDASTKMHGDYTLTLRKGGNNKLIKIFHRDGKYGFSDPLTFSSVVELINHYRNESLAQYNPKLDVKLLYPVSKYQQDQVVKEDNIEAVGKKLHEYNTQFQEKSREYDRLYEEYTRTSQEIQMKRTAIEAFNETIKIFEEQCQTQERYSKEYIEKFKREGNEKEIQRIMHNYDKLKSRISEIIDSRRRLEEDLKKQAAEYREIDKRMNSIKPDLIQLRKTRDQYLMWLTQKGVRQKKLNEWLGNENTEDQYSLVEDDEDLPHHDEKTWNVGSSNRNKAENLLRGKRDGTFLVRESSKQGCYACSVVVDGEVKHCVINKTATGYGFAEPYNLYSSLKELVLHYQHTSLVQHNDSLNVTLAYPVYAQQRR
T2 sequence (P48736 whole entry): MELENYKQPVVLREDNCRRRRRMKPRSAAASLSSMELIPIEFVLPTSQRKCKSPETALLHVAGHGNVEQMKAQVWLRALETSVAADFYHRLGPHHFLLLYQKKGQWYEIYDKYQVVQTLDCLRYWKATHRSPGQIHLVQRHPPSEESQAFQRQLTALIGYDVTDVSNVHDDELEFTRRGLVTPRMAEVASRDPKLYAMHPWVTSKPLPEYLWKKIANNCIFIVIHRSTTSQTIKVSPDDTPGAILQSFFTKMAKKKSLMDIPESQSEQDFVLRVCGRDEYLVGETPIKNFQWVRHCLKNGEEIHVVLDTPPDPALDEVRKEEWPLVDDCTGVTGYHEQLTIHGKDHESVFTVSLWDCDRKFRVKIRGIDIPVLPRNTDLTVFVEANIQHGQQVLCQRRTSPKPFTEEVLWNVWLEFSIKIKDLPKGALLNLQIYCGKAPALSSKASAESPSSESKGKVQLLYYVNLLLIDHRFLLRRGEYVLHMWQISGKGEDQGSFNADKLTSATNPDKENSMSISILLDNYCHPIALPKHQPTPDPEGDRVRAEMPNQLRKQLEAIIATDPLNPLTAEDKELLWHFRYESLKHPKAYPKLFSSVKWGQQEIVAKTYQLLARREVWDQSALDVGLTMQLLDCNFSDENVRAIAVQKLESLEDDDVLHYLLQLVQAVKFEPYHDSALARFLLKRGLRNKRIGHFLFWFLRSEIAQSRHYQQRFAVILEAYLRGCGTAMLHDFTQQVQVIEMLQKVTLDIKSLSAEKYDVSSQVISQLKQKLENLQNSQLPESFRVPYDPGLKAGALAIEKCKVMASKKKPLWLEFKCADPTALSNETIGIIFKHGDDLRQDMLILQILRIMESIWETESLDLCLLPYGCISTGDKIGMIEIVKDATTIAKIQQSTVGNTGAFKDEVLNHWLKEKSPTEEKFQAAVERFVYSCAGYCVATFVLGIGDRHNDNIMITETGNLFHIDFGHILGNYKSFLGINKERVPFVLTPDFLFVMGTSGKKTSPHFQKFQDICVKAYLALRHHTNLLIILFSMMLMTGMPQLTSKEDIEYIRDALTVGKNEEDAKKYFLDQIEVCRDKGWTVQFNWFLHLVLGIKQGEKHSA

- Capture (pull down) of PI3K delta from the cell lysate [1]: captures
- Capture (pull down) of PI3K gamma from the cell lysate [2]: captures
SMILES: Cc1nc(NC(=O)CCOCCOCCOCCOCCN)sc1-c1ccc(Cl)c(S(C)(=O)=O)c1.Cl [phenylthiazole ligand 1, 3-(2-{2-[2-(2-amino-ethoxy)-ethoxy]-ethoxy}-ethoxy)-N-[5-(4-chloro-3-methanesulfonyl-phenyl)-4-methyl-thiazol-2yl]-propionamide hydrochloride]
